From patent US6613797B2, “Xanthone analogs for treating infectious diseases and complexation of heme and porphyrins” (Interlab, Inc., priority 1999, dated 2003)
In brackets after ≈: the same amount, converted by molar mass. Read-outs that look alike come from different tables or passages of the source. One block for each compound: values may come before it.

Columns and labels:
[1] = system: Plasmodium falciparum D6 strain; test: in vitro anti-malarial activity, [3H]-ethanolamine incorporation method; format: cell-based
Description: Cultures were maintained at 37° C. in a gas mixture of 5% oxygen, 5% CO2, and 90% nitrogen.
[^3H]-ethanolamine was obtained from American Radiolabeled Chemicals, Inc., St. Louis, Mo. Experiments were conducted in 96 well plates in a total volume of 200 μl at a final red blood cell concentration of 2% (v/v). An initial parasitemia of 0.2 to 0.5% was attained by addition of normal uninfected red cells. Radiolabeled ethanolamine was added after 48 hours of incubation and the experiment was terminated after 72 hours by collecting the cells onto glass fiber filters with an automated multiwell harvester.
Stock solutions of the various Formula X1 compounds were dissolved in DMSO at a concentration of 1 mM and diluted in complete medium (including 10% human serum) to provide 10X stock concentrations in the range of 1 to 10,000 nM.

[2] = in vitro heme aggregation (polymerization) assay; format: biochemical; conditions: for inhibitory activity in heme polymerization assay: result in words
Description: Heme polymerization was carried out in 0.02 M phosphate buffer, pH 5.2 at 37° C. in the absence of protenis. A 10 mM stock solution of hemin chloride in 0.1 M NaOH wa prepared freshly and incuated at 37° C. for at least 1 hour to effect complete dissolution. Xanthones were dissolved in dimethylformamide at 10 mM and diluted into 10 ml of pre-warmed phosphate solution to a final concentraion of 25 μm. […] 25 μl of dimethylformaide wa added to the control smample. After 7, 30, 60, 120 and 190 minutes of incugation at 37° C., a 1 ml aliquot was withdraqwn, tranferred into an Eppendorf tube, and centrifugted at 14,000 g for 2 minutes at room temperature to pellet the precipitate. The soluble fraction was then transferred to a semi-microcuvette (polymethyacrylate, VER), and its absoprtion was measured at 360 nm against a blank of the test compound in buffer.
The reactions were allowed to proceed for 2 hours in a 37° C. waterbath. After incubation, the polymer was pelleted as described above and the absorption (360 nm) of each soluble fraction was measured against a blank containing the drug alone in buffer. The IC50 values were determined by nonlinear regression analysis of the dose-response curves of percent inhibition of heme polymerization vs. drug concentration.

[3] = system: intracellular amastigotes of Leishmania mexicana M379; test: intracellular amastigote assay in infected murine macrophages; format: cell-based
Description: Bone-marrow-derived macrophages (BALB/c) were cultured with L-cell-conditioned medium for 5-7 days at 35° C. After this period of incubation, mature macrophages were transferred to Labtek 4-chamber slides containing DMEM (Dulbecco's Modified Eagle's Medium) and 10% fetal calf serum. 50,000 cells were seeded in each chamber and allowed to attach overnight at 37° C. in a humidified incubator flushed with 5% CO2. On the next day the macrophages were infected at an MOI (Multiplicity of Infection) of 10:1 with stationary promastigotes of L. mexicana. After twenty-four hours, the medium was removed and fresh medium was added containing various drug concentrations (0-5 μM). Following incubation for an additional forty-eight hours, one set of slides were fixed in methanol, dried, and stained with Giemsa stain. Fresh medium and drug were added to a parallel set of chamber slides and incubated for another 48 hours before staining. […] Microscopic inspection permitted determination of % of infected macrophages and the number of amastigotes per 100 macrophages. The IC50 value is that concentration of drug that reduces the amastigote number by 50% relative to drug-free controls. Results also were obtained in parallel fashion with macrophages.
Intracellular amastigote studies. […] Because the amastigote stage is the only relevant clinical form of the parasites, we examined the activity of the nitrogenated xanthones against the heme-auxotrophic, intracellular amastigote form of L. mexicana. Stationary promastigotes of L. mexicana M379 rapidly invaded murine peritoneal macrophages obtained from BALB/c mice and incubated at 35° C. producing heavily burdened cells with 10 to 50 amastigotes per macrophage within 24 hours. An experiment was performed to investigate the ability of selected xanthones to reduce the number of intracellular amastigotes using this model. The IC50 value is that concentration of drug required to reduce the intracellular parasite burden by 50% relative to a drug-free control chamber. We tested the xanthone series against amastigote-infected murine peritoneal macrophages. Macrophages were seeded into Labtek chamber slides (25,000 per well/8 chamber slide) and allowed to incubate overnight in Dulbecco's Modified Eagle Medium (DMEM) supplemental with 10% fetal calf serum. On the next day the cells were infected with L. mexicana promastigotes at an MOI of 5:1 and then incubated for 24 hours at 35° C. After incubation, the monolayers were washed with buffer and medium containing varying concentrations of each xanthone (0 to 10 μM) was added to each chamber. After 48 hours of incubation (i.e., Day 3 of the experiment) one set of slides was removed, fixed with methanol, and stained with Giemsa. For another set of slides, we replenished the culture medium, added fresh drug to each well as appropriate, and then incubated the chambers for another 48 hours before staining with Giemsa. IC50 values were then averaged for 3 separate experiments and the results are presented in Table 4 and graphically in FIG. 7. […] The IC50 values recorded for C5 and C6 exposure for 96 hours of treatment were 6 nM and 2 nM.

[4] = system: Candida albicans; test: anti-Candida activity, MIC by visual inspection; format: cell-based; conditions: conversion of the MIC, read-out: IC50 corresponding to the MIC against Candida albicans
Description: The minimum inhibitory concentration (MIC) of formula X1 compounds against a clinical isolate of Candida albicans was determined using the following method. […] The determination of this concentration is made by visual inspection; there is no visible growth in a tube containing the MIC of the formula X1 compound whereas visible growth is present in tubes containing sub-MIC concentrations of the compound.
Candida albicans was grown to midlog-phase in Luria-Bertani broth (10 grams Bacto-tryptone, 5 grams Bacto-yeast extract and 10 grams NaCl per liter) and then inoculated into sterile test tubes containing LB broth to an initial density of 10^3/ml. The formula X1 compound to be tested is dissolved in dimethylsulfoxide (DMSO) at a concentration of 1 mM and added to each tube at serial dilutions (1 μM, 10 μM, 25 μM, 50 μM, 100 μM and 0 μM). The tubes are incubated at 35° C. for 15-18 hours and then visually inspected.

[5] = system: P. falciparum W2 strain; test: antimalarial activity against multidrug resistant W2 strain; format: cell-based, Plasmodium falciparum
Description: A decision was made to retain the oxygen atom (a conjugatively electron-donating species) as a bridge for an R-group containing the protonatable nitrogen. […] For comparative purposes, the straight-chain di-substituted series from C2 to C8 (i.e., excepting C7), each with a terminal diethylamino group was prepared. Shown in Table 4 is the remarkable relationship between chain length and antimalarial activity within the series . . . and the extraordinary potency of the C5 (3,6-bis-ω-diethylaminoamyloxyxanthone) and C6 (3,6-bis-ω-diethylaminohexyloxyxanthone) congeners.

[6] = Plasmodium falciparum, D6, Table 4, average of 2 experiments in triplicate, 72 hour assay, read-out: IC50 μM* P. falciparum D6
[7] = Plasmodium falciparum, D6, Table 3, read-out: IC50 μM, P. falciparum clone D6
[8] = Table 3, 25 μM heme, pH 5.2, 37° C., 2 hours, average of at least two determinations, read-out: IC50, μM in vitro heme polymerization
[9] = Plasmodium falciparum, D6, read-out: IC50 μM, P. falciparum clone D6
[10] = Leishmania mexicana, Macrophage, 48 h, read-out: IC50 μM** L. mexicana
[11] = text b143, read-out: IC50, inhibition of heme polymerization
[12] = Table 4, average of 2 experiments in triplicate, 72 hour assay, read-out: IC50 μM* P. falciparum D6
[13] = P. falciparum D6, read-out: IC50, anti-malarial activity
[14] = 96 hours of treatment, peritoneal macrophages, read-out: IC50, L. mexicana amastigotes
[15] = Table 4, 48 hours of drug exposure, reduction of amastigote burden by 50%, read-out: IC50 μM** L. mexicana

- IC50 [1, 6]: 2.5 µM
Compound: CCN(CC)CCCCCOc1ccc2c(=O)c3ccccc3oc2c1 [3-(N,N-diethylamino)amyloxy-xanthone]

- IC50 [1, 7]: > 100 µM
- IC50 [2, 8]: > 1000 µM
Compound: COc1cc2c(=O)c3ccc(OC)c(OC)c3oc2c(OC)c1OC [2,3,4,5,6-pentamethoxyxanthone]
- inhibitory activity in heme polymerization assay [2]: inactive

Compound: O=c1c2ccccc2oc2cc(O)ccc12 [3-hydroxyxanthone]
- IC50 [1, 9]: > 100 µM
- IC50 [2, 8]: > 1000 µM

Compound: CCN(CC)CCCCOc1ccc2c(=O)c3ccc(OCCCCN(CC)CC)cc3oc2c1 [36-DEAB-X, 3,6-bis-δ-(N,N-diethylamino)butoxy-xanthone]
- IC50 [1, 6]: 0.65 µM
- IC50 [3, 10]: 0.2 µM

- IC50 [1, 7]: 40 µM
- IC50 [2, 8]: 17 µM
- IC50 [2, 11]: 16.5 µM
Compound: O=c1c2ccccc2oc2c(O)c(O)c(O)cc12 [2,3,4-trihydroxyxanthone]

- IC50 [1, 6]: 2.8 µM
Compound: CCN(CC)CCOc1cccc2c(=O)c3cccc(OCCN(CC)CC)c3oc12 [45-DEAE-X, 4,5-bis-β-(N,N-diethylamino)ethoxy-xanthone]

- IC50 [1, 7]: 5 µM
- IC50 [2, 8]: 2.5 µM
Compound: O=c1c2ccc(O)c(O)c2oc2c(O)c(O)ccc12 [3,4,5,6-tetrahydroxyxanthone]

Compound: CCN(CC)CCCCCCCCOc1ccc2c(=O)c3ccc(OCCCCCCCCN(CC)CC)cc3oc2c1 [36-DEAOctyloxy-X, 3,6-bis-(N,N-diethylamino)octyloxy-xanthone]
- IC50 [1, 12]: 0.43 µM

- IC50 [1, 6]: 20 µM
- IC50 ([1]; Plasmodium falciparum, P. falciparum D6, read-out: IC50, anti-malarial activity): ~20 µM
Compound: CCN(CC)c1ccc2c(=O)c3ccc(N(CC)CC)cc3oc2c1 [36-DEAX, 3,6-bis-N,N-diethylamino-xanthone]

Compound: O=c1c2ccc(O)c(O)c2oc2c(O)c(O)c(O)cc12 [2,3,4,5,6-pentahydroxyxanthone]
- IC50 [4]: ~10 µg/mL (≈ 36.2 µM)
- IC50 [1, 7]: 0.4 µM
- IC50 ([3]; Leishmania mexicana, Macrophage, read-out: IC50, anti-leishmanial activity): ~1 µg/mL
- IC50 ([3]; Leishmania mexicana, Macrophage, intracellular amastigote method, read-out: IC50, anti-leishmanial activity): ~5 µM
- IC50 [2, 8]: 1.2 µM
- IC50 [2, 11]: 1.2 µM

- IC50 [1, 7]: 75 µM
- IC50 [2, 8]: > 1000 µM
Compound: O=c1c2ccccc2oc2cc(O)cc(O)c12 [1,3-dihydroxyxanthone]

Compound: CCN(CC)CCCOc1ccc2c(=O)c3ccc(OCCCN(CC)CC)cc3oc2c1 [36-DEAP-X, 3,6-bis-γ-(N,N-diethylamino)propoxy-xanthone]
- IC50 [1, 6]: 1.5 µM
- IC50 [3, 10]: 0.5 µM

Compound: O=c1c2ccccc2oc2ccccc12 [Xanthone]
- IC50 ([1]; Plasmodium falciparum, D6, read-out: IC50, μM vs. Plasmodium): > 10 µM
- inhibitory activity in heme polymerization assay [2]: did not exhibit any inhibitory activity

- IC50 [1, 7]: 16 µM
- IC50 [2, 8]: 14 µM
Compound: O=c1c2cccc(O)c2oc2c(O)cccc12 [4,5-dihydroxyxanthone]

Compound: O=c1c2ccccc2oc2ccc(O)cc12 [2-hydroxyxanthone]
- IC50 [1, 9]: 50 µM
- IC50 [2, 8]: > 1000 µM

Compound: O=c1c2ccc(O)cc2oc2cc(O)ccc12 [3,6-dihydroxyxanthone]
- IC50 [1, 9]: > 100 µM
- IC50 [2, 8]: > 500 µM

- IC50 [4]: ~10 µg/mL (≈ 34.2 µM)
- IC50 [1, 7]: 0.1 µM
- IC50 [2, 8]: 1.4 µM
Compound: O=c1c2cc(O)c(O)c(O)c2oc2c(O)c(O)c(O)cc12 [2,3,4,5,6,7-hexahydroxyxanthone]

Compound: CCN(CC)CCCCCOc1ccc2c(=O)c3ccc(OCCCCCN(CC)CC)cc3oc2c1 [36-DEAAmyl-X, 3,6-bis-ε-(N,N-diethylamino)-amyloxy-xanthone]
- IC50 [1, 13]: ~0.1 µM
- IC50 [1, 12]: 0.1 µM
- degree of potency against W2 compared with D6 [5]: the same
- IC50 [3, 14]: 0.006 µM
- IC50 [3, 15]: 0.06 µM

- IC50 [1, 7]: 1 µM
- IC50 [2, 8]: 9 µM
Compound: O=c1c2cc(O)c(O)c(O)c2oc2cc(O)cc(O)c12 [1,3,5,6,7-pentahydroxyxanthone]

Compound: CC(=O)Oc1cc2c(=O)c3ccc(OC(C)=O)c(OC(C)=O)c3oc2c(OC(C)=O)c1OC(C)=O [2,3,4,5,6-pentaacetoxyxanthone]
- IC50 [1, 7]: 0.075 µM
- IC50 [2, 8]: > 1000 µM
- inhibitory activity in heme polymerization assay [2]: inactive

- IC50 ([1]; Plasmodium falciparum, D6, read-out: IC50, anti-malarial activity): ~0.04 µM
Compound: CCN(CC)CCCC(C)Nc1ccnc2cc(Cl)ccc12 (stereo not drawn) [Chloroquine, reference compound]

Compound: CCN(CC)CCOc1ccc2c(=O)c3ccc(OCCN(CC)CC)cc3oc2c1 [36-DEAE-X, 3,6-bis-β-(N,N-diethylamino)ethoxy-xanthone]
- IC50 [1, 6]: 2.2 µM
- IC50 [3, 10]: ~1.25 µM

- IC50 ([1]; Plasmodium falciparum, D6, Table 4, cells printed in nM, 72 hour assay, read-out: IC50 μM* P. falciparum D6): 0.575 µM
Compound: CCN(CC)CCCCCOc1cccc2c(=O)c3cccc(OCCCCCN(CC)CC)c3oc12

Compound: CCN(CC)CCCCCCOc1ccc2c(=O)c3ccc(OCCCCCCN(CC)CC)cc3oc2c1 [36-DEAHexyl-X, 3,6-bis-(N,N-diethylamino)-hexyloxy-xanthone]
- IC50 [1, 13]: ~0.1 µM
- IC50 [1, 12]: 0.075 µM
- degree of potency against W2 compared with D6 [5]: the same
- IC50 [3, 14]: 0.002 µM
- IC50 [3, 15]: 0.02 µM
